From PubChem BioAssay AID2060356 (Molecular Pharmacology Branch, DTP, NCI, 2025)
Several values for one entry are separate records, joined by “and”; a condition that tells them apart may be missing. Identical values can stand only once.

Test system: PDC tumor spheroids with HUVEC/MSC, viability
Assay: Anticancer human tumor 439559-082-T-J2-PDC patient-derived colon adenocarcinoma cell line growth inhibition [TAK]
Conditions: for viability, T/C: stronger effect = lower value
Text: Combinatorial screen of targeted agents with TAK-243 and ipatasertib in multi-cell type tumor spheroids
A high-throughput screen of multi-cell type tumor spheroids was designed to identify active combinations of targeted small molecules and TAK-243 or ipatasertib. Complex spheroids include a stromal component modeled by human endothelial cells (HUVEC) and fibroblasts modeled by human mesenchymal stem cells (MSCs). The concentration ranges selected for each drug and investigational agent were based upon clinically achievable concentrations if the clinical Cmax of the agent was known.
Compounds. The drugs and investigational agents: TAK-243 (785004), ipatasertib (767898), everolimus (733504), selumetinib (741078), bortezomib (756655), trametinib (758246), ixazomib (758254), vemurafenib (761431), dabrafenib (764134), sapanisertib (764658), alpelisib (765974), and copanlisib (816437), were obtained from the National Cancer Institute (NCI) Developmental Therapeutics Program Chemical Repository. The FDA-approved anticancer drug set is available from the NCI Developmental Therapeutics Program. […] The stock solutions were prepared in dimethyl sulfoxide (DMSO, Sigma-Aldrich, St. Louis, MO, cat. D2650) at 800-fold the tested concentration and stored at -70 degrees C prior to their use. All drugs and investigational agents were tested over a range starting from a high concentration at or near the clinical Cmax and decreasing in half-log increments. If the clinical Cmax for an agent had not been determined, the highest concentration tested was 10 microM.
NCI60 Cell Culture. NCI60 cell lines were obtained from the NCI Developmental Therapeutics Program Tumor Repository. For each lot of cells, the Repository performed Applied Biosystems AmpFLSTR Identifiler testing with PCR amplification to confirm consistency with the published Identifier STR profile for each cell line. Cells were kept in continuous culture for no more than 20 passages. The optimal seeding densities for each of the cell lines at each time point assessed were determined prior to performing the concentration response studies. Briefly, the NCI60 human tumor lines were grown as monolayers in RPMI 1640 medium supplemented with 10% FBS and 2 mmol/L L-glutamine.
An additional 2 lines were from the NCI60 cell line panel including melanomas, MALME-3M and SK-MEL-2. Pooled donor human umbilical vein endothelial cells (HUVEC, Lonza, cat. CC-2519) and human mesenchymal stem cells (hMSC, Lonza, cat. PT-2501) were purchased from Lonza (Walkersville, MD).
PDMR cell lines were grown in complete medium (DC medium): Dulbecco's modified Eagle's medium (DMEM)/F12 supplemented with 5% fetal bovine serum (FBS), 2 mM L-glutamine, 100 U/mL penicillin and 100 µg/ml streptomycin, 0.4 µg/ml hydrocortisone, 10 ng/ml epidermal growth factor (EGF) recombinant human protein, 24 µg/mL adenine, and 0.1 mg/mL primocin. During culture from frozen stock vials, PDMR cells were cultured in the same medium containing 10 µM Y-27632 (see Table 3). The PDCs were cultured in complete DMEM/F12 media without 10 microM Y-27632 dihydrochloride for at least two passages prior to the screen. The pooled donor HUVEC and hMSC were cultured in endothelial cell growth medium 2 (PromoCell, Heidelberg, Germany, cat. C-22011) and mesenchymal stem cell growth medium 2 (PromoCell, cat. C-28009), respectively. For all experiments, HUVEC and hMSC were used at passages </=5.
For the pre-screen, cell seeding densities were determined from a titration spanning the range from 5,000 to 313 cells per well. The mct-spheroids including 60% malignant cells, 25% HUVEC and 15% MSC dispensed as a mixture into U-bottom Ultra-Low Attachment 384-well plates (Corning, NY)
High-throughput Drug Combination Screening.
Prior to their inoculation into 384-well plates, malignant cells, HUVEC, and hMSC were removed from T flasks using TrypLE express (Thermo Fisher Scientific, cat. 12605036) and harvested by centrifugation for 5 min at 233 x g. […]

[1] = curve of first compound, second compound 0.3 µM
[2] = curve of first compound, second compound 0.949 µM
[3] = curve of first compound, second compound 3 µM
[4] = curve of first compound, second compound 9.49 µM
[5] = curve of first compound, second compound 30 µM
[6] = second compound 0.3 µM, first compound 0.0316 µM
[7] = second compound 0.3 µM, first compound 0.1 µM
[8] = second compound 0.949 µM, first compound 0.0316 µM
[9] = second compound 0.949 µM, first compound 0.1 µM
[10] = second compound 3 µM, first compound 0.0316 µM
[11] = second compound 3 µM, first compound 0.1 µM
[12] = second compound 9.49 µM, first compound 0.0316 µM
[13] = second compound 9.49 µM, first compound 0.1 µM
[14] = second compound 30 µM, first compound 0.0316 µM
[15] = second compound 30 µM, first compound 0.1 µM
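Note: spheroids exposed to drugs for seven days before readout.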

CC(C)(C)c1nc(-c2cccc(NS(=O)(=O)c3c(F)cccc3F)c2F)c(-c2ccnc(N)n2)s1 + CC(C)NCC(C(=O)N1CCN(c2ncnc3c2C(C)CC3O)CC1)c1ccc(Cl)cc1
IC50 [1]: > 10 µM
IC50 [2]: > 10 µM
IC50 [3]: > 10 µM
IC50 [4]: > 10 µM
IC50 [5]: > 10 µM
viability, T/C [6]: 123%
viability, T/C [7]: 108%
viability, T/C (second compound 0.3 µM, first compound 0.316 µM): 106%
viability, T/C (second compound 0.3 µM, first compound 1 µM): 110%
viability, T/C (second compound 0.3 µM, first compound 3.16 µM): 113%
viability, T/C (second compound 0.3 µM, first compound 10 µM): 96.3%
viability, T/C [8]: 108%
viability, T/C [9]: 113%
viability, T/C (second compound 0.949 µM, first compound 0.316 µM): 102%
viability, T/C (second compound 0.949 µM, first compound 1 µM): 111%
viability, T/C (second compound 0.949 µM, first compound 3.16 µM): 106%
viability, T/C (second compound 0.949 µM, first compound 10 µM): 96.2%
viability, T/C [10]: 104%
viability, T/C [11]: 107%
viability, T/C (second compound 3 µM, first compound 0.316 µM): 106%
viability, T/C (second compound 3 µM, first compound 1 µM): 96.9%
viability, T/C (second compound 3 µM, first compound 3.16 µM): 103%
viability, T/C (second compound 3 µM, first compound 10 µM): 93.8%
viability, T/C [12]: 99.8%
viability, T/C [13]: 107%
viability, T/C (second compound 9.49 µM, first compound 0.316 µM): 102%
viability, T/C (second compound 9.49 µM, first compound 1 µM): 90.5%
viability, T/C (second compound 9.49 µM, first compound 3.16 µM): 96%
viability, T/C (second compound 9.49 µM, first compound 10 µM): 99.5%
viability, T/C [14]: 93.5%
viability, T/C [15]: 101%
viability, T/C (second compound 30 µM, first compound 0.316 µM): 96.2%
viability, T/C (second compound 30 µM, first compound 1 µM): 99.4%
viability, T/C (second compound 30 µM, first compound 3.16 µM): 86.8%
viability, T/C (second compound 30 µM, first compound 10 µM): 94%

Cc1nc(NC(=O)N2CCCC2C(N)=O)sc1-c1ccnc(C(C)(C)C(F)(F)F)c1 (configuration not stated)
viability, T/C (compound 0.0316 µM): 108% and 109%
viability, T/C (compound 0.1 µM): 105% and 106%
viability, T/C (compound 0.316 µM): 88.8% and 87%
viability, T/C (compound 1 µM): 90.8% and 87.5%
viability, T/C (compound 3.16 µM): 90% and 80.8%
viability, T/C (compound 10 µM): 82.5% and 78.5%
IC50 (curve of compound): > 10 µM

CC(C)n1nc(-c2ccc3oc(N)nc3c2)c2c(N)ncnc21 + CC(C)NCC(C(=O)N1CCN(c2ncnc3c2C(C)CC3O)CC1)c1ccc(Cl)cc1
IC50 [1]: > 0.1 µM
IC50 [2]: > 0.1 µM
IC50 [3]: > 0.1 µM
IC50 [4]: > 0.1 µM
IC50 [5]: > 0.1 µM
viability, T/C (second compound 0.3 µM, first compound 0.000316 µM): 109%
viability, T/C (second compound 0.3 µM, first compound 0.001 µM): 98.8%
viability, T/C (second compound 0.3 µM, first compound 0.00316 µM): 96.5%
viability, T/C (second compound 0.3 µM, first compound 0.01 µM): 80.4%
viability, T/C [6]: 73.1%
viability, T/C [7]: 71.2%
viability, T/C (second compound 0.949 µM, first compound 0.000316 µM): 106%
viability, T/C (second compound 0.949 µM, first compound 0.001 µM): 101%
viability, T/C (second compound 0.949 µM, first compound 0.00316 µM): 83%
viability, T/C (second compound 0.949 µM, first compound 0.01 µM): 85%
viability, T/C [8]: 76%
viability, T/C [9]: 68%
viability, T/C (second compound 3 µM, first compound 0.000316 µM): 101%
viability, T/C (second compound 3 µM, first compound 0.001 µM): 91.8%
viability, T/C (second compound 3 µM, first compound 0.00316 µM): 80.8%
viability, T/C (second compound 3 µM, first compound 0.01 µM): 82%
viability, T/C [10]: 73.7%
viability, T/C [11]: 71.8%
viability, T/C (second compound 9.49 µM, first compound 0.000316 µM): 89.5%
viability, T/C (second compound 9.49 µM, first compound 0.001 µM): 94.6%
viability, T/C (second compound 9.49 µM, first compound 0.00316 µM): 84.1%
viability, T/C (second compound 9.49 µM, first compound 0.01 µM): 78.7%
viability, T/C [12]: 69.9%
viability, T/C [13]: 66.8%
viability, T/C (second compound 30 µM, first compound 0.000316 µM): 88.6%
viability, T/C (second compound 30 µM, first compound 0.001 µM): 91.1%
viability, T/C (second compound 30 µM, first compound 0.00316 µM): 87.8%
viability, T/C (second compound 30 µM, first compound 0.01 µM): 75%
viability, T/C [14]: 73.3%
viability, T/C [15]: 70.3%
